What was measured:
Format in all cases: binding
[1] = target: T1, human dopamine transporter (hDAT) (Homo sapiens, UniProt Q01959); assay: Human dopamine transporter (hDAT) scintillation proximity assay, competition with [3H]-Vanoxerine; conditions: HEK-293 cells expressing recombinant hDAT, Ki by Cheng-Prusoff
T1 construct: expressed in transfected cells; host or cells: HEK-293
Method: This assay was used to determine the affinity of ligands for the dopamine transporter by competition with [^3H]-Vanoxerine.
HEK-293 cells (Tatsumi et al., Eur. J. Pharmacol. 1997, 30, 249-258) stably expressing recombinant hDAT were maintained with media (DMEM hi glucose with 10% FBS, […] G418 and 2 mM L-Glutamine) and incubated at 37° C. with 5% CO2. Cells were plated four hours prior to experiment by placing approximately 30,000 cells per well (in PBS) on white, opaque Cell-Tak coated 96 well plates. Extra buffer was apriated from the cell plates using an ELx405 plate washer.
^3[H] vanoxerine (GBR 12909) radioligand, specific activity approximately 59 Ci/mmol, stock concentration, 400 nM, and 50 mM Tris-HCl, 300 mM NaCl, (pH 7.4) buffers were used for Scintillation Proximity Assay IC50/Ki determination. […]
The % inhibition was calculated for each compound tested [(Compound CPM at maximum concentration-Non-Specific CPM)/Total CPM*100]. […]
(§1) [formula] where max=total binding, min=non specific binding, x=concentration (M) of the tested compound and n=Hill slope. The inhibition dissociation constant (Ki) of each compound was determined according to the method of Cheng-Prusoff and then converted into negative logarithm (pKi) of the Ki.

[2] = target: T2, human norepinephrine transporter (hNET) (Homo sapiens, UniProt P23975); assay: Human norepinephrine transporter (hNET) scintillation proximity assay, competition with [3H]-Nisoxetine; conditions: membranes of HEK-293 cells expressing recombinant hNET, Ki by Cheng-Prusoff
T2 construct: expressed in transfected cells; host or cells: HEK-293 (Clone: HEK-hNET #2)
T2 sequence (P23975 whole entry): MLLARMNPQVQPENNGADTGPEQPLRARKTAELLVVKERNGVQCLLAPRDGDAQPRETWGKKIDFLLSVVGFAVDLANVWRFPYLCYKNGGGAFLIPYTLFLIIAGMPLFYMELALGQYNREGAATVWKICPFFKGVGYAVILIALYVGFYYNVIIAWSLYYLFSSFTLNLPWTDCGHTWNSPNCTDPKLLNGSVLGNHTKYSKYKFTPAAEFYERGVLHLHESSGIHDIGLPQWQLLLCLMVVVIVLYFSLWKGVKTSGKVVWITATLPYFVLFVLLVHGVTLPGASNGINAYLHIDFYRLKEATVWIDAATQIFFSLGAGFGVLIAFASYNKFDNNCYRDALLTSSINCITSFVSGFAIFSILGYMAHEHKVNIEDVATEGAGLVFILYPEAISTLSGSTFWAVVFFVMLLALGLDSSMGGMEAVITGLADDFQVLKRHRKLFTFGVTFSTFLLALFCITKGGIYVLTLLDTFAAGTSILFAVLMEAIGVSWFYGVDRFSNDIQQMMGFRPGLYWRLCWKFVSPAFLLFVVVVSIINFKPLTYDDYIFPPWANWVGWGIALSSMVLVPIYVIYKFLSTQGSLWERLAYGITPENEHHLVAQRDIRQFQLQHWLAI
Method: This assay was used to determine the affinity of ligands for the hNET transporter by competition with [^3H]-Nisoxetine. As in the hSERT assay of the above example, receptor-containing membranes were pre-coupled to the SPA beads and the binding of the appropriate radioligand to the transporter was measured. The light emission was proportional to the amount of bound radioligand, with unbound radioligand producing no signal.
HEK-293 cells (Tatsumi et al., Eur. J. Pharmacol. 1997, 30, 249-258) stably expressing recombinant hNET (Clone: HEK-hNET #2) were maintained with media (DMEM hi glucose with 10% FBS, 300 ug/ml G418 and 2 mM L-Glutamine) and incubated at 37° C. with 5% CO2. Cells were released from culture flasks using PBS for 1-2 minutes. […]
(§2) Cell membranes were prepared using a membrane preparation buffer of 50 mM TRIS (pH 7.4). […] After a second centrifugation, the pellet was re-homogenized and brought to a final volume determined during the assay. […]
^3[H] […] The mixtures were allowed to stand at room temperature for one hour, and were then counted on a Packard TopCount LCS, a generic SPA counting protocol settings (Energy Range: Low, Efficiency Mode: Normal, Region A: 1.50-35.00, Region B: 1.50-256.00, Count Time (min.): 0.40, Background Subtract: none, Half-Life Correction: no, Quench Indicator: tSIS, Platemap blank subtraction: No, Cross talk reduction: Off). […]

[3] = target: T3, human serotonin transporter (hSERT) (Homo sapiens, UniProt P31645); assay: Human serotonin transporter (hSERT) scintillation proximity assay, competition with [3H]-Citalopram; conditions: membranes of HEK-293 cells expressing recombinant hSERT, Ki by Cheng-Prusoff
T3 construct: expressed in transfected cells; host or cells: HEK-293
T3 sequence (P31645 whole entry): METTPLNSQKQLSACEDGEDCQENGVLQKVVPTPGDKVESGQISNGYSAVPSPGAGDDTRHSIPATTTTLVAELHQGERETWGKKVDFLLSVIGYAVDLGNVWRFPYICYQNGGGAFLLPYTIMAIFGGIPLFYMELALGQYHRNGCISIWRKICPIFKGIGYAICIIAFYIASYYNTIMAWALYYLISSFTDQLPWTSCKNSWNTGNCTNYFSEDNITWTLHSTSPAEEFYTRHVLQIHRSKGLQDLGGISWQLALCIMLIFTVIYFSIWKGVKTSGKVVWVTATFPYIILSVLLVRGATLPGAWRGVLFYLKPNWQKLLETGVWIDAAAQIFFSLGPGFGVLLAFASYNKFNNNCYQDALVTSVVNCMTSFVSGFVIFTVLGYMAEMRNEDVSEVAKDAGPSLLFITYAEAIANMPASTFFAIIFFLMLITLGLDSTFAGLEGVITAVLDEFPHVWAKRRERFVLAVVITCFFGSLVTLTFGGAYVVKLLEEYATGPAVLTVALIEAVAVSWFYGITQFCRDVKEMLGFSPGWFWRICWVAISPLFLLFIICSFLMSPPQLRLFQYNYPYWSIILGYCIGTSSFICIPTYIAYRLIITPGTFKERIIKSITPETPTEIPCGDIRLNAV
Method: The screening assay of this example was used to determine the affinity of ligands at the hSERT transporter by competition with [^3H]-Citalopram.
Scintillation Proximity Assay (SPA) works by bringing radioligand within close proximity to the bead's scintillant to stimulate light emission. In this assay, the receptor-containing membranes were pre-coupled to the SPA beads and the binding of the appropriate radioligand to the transporter was measured. The light emission was proportional to the amount of bound radioligand. Unbound radioligand produced no signal as a result of distant proximity to scintillant (lack of energy transfer). […]
as §2
The % inhibition was calculated for each compound tested [(Compound counts per minute (CPM) at maximum concentration-Non-Specific CPM)/Total CPM*100]. […]
as §1

T1 sequence (Q01959 whole entry): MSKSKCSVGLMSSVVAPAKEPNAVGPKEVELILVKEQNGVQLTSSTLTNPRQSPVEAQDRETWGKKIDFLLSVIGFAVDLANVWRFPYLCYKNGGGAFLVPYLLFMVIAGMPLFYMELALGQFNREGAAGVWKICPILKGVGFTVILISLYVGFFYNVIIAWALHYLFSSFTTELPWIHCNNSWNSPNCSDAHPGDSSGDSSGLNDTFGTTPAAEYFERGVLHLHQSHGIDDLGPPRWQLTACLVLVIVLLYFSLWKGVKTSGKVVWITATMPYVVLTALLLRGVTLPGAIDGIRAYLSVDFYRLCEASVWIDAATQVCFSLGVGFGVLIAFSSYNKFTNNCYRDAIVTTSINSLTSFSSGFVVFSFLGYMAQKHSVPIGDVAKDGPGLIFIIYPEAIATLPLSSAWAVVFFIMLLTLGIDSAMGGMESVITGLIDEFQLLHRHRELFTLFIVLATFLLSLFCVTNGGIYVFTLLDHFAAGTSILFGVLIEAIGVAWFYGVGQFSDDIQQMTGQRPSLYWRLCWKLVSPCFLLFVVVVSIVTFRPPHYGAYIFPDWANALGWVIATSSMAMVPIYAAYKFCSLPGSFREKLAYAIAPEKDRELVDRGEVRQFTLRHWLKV

Compound `CNC1CCN(c2ccc3[nH]ccc3c2)c2ccccc21` (stereo not drawn) [[1-(1H-Indol-5-yl)-1,2,3,4-tetrahydro-quinolin-4-yl]-methyl-amine] has a Ki [1] of about 14.1 nM, a Ki [2] of about 15.5 nM and a Ki [3] of about 33.1 nM.

— US8318770B2, “Tetrahydroquinoline indole derivatives and uses thereof” (Roche Palo Alto LLC, priority 2009, dated 2012)
